pIC50: −log10 of the molar value.
Legend:
[1] = tested on: cholesterol level in serum; assay: Effect of reducing a lipid level in blood: serum cholesterol in hamsters fed 1% cholesterol / 0.5% cholic acid diet; format: in vivo, golden Syrian hamster; conditions: once a day for 5 days, relative to control group
Experimental: The effect of reducing a lipid level in blood by the action of the compounds according to the present invention was determined as follows:
Male golden Syrian hamsters weighing from 80 to 100 g were randomly divided into groups. The hamsters were first fed standard laboratory diets (solid feed MF-1 for mouse/rat/hamster, manufactured by Oriental Yeast Industries, KK) for 3 days. Then, they were fed the experimental diet containing 1% cholesterol and 0.5% cholic acid (manufactured by Oriental Yeast Industries, KK), ad libitum. At the same time, the compounds of the invention formulated in a shown dose (0.1-10 mg/10 ml water/kg) were administrated to the animals orally once a day at a determined time for 5 days. Water was administrated orally to the hamsters of control group in an amount of 10 ml per 1 kg of body weight. After five days of administrating the compounds, the animals were anesthetized with Pentobarbital Na (Nembutal injection, manufactured by Dainabbot) and three hours after the final administration of the test compound, a blood sample was taken from abdominal cava. The serum was separated from the sample by centrifuging.
The cholesterol level in the serum was determined by using a blood cholesterol measuring kit, Determina-TC5 manufactured by Kyowa Medix Co. The results are represented by percent inhibition (%) of cholesterol level in serum relative to that of the control group, and shown in the following Table 2.

[2] = target: acyl-CoA: cholesterol acyltransferase (ACAT); assay: ACAT inhibitory action: cholesteryl-[14C] oleate formation in hamster microsomes; format: biochemical; conditions: radio-labelled oleoyl coenzyme A (14C)
Experimental: The ACAT inhibitory action of the compounds according to the present invention was measured as follows:
ACAT activity in the hamster microsomes was determined by measuring the rate of radio-active cholesteryl-[^14 C] oleate formation from cholesterol and radio-labelled oleoyl coenzyme A (^14 C) with or without test compound.
Calculations of IC50 value were made using data of the percent inhibition at each compound concentration.

[3] = Mesocricetus auratus, po, 120 h, read-out: Percent inhibition of cholesterol in serum
[4] = Mesocricetus auratus, po, 120 h, 0.1 mg/kg, read-out: Percent inhibition of cholesterol in serum

SMILES	inhibition in vivo at 1 mg/kg [1, 3] [%]	further results
CCCCCC(CNC(=O)Nc1c(C(C)C)cccc1C(C)C)c1cccc(C)c1 (stereo not drawn) [Example 12]	43	pIC50 [2]: 7.59
CC(C)c1cccc(C(C)C)c1NC(=O)NCC(c1ccccc1)C(C)(C)C (stereo not drawn) [compound 1, 1-(3,3-dimethyl-2-phenylbutyl)-3-(2,6-diisopropyl-phenyl)urea, reference compound]	–	inhibition in vivo at 5 mg/kg ([1]; Mesocricetus auratus, po, 120 h, 5 mg/kg, read-out: Percent inhibition of cholesterol in serum): 5%
CCCCC(CNC(=O)Nc1c(C(C)C)cccc1C(C)C)c1cccc(Cl)c1 (stereo not drawn) [Example 40]	38	pIC50 [2]: 7.51
CCCCC(CNC(=O)Nc1c(C(C)C)cccc1C(C)C)Cc1ccc(Cl)cc1 (stereo not drawn) [Example 49]	–	inhibition in vivo at 10 mg/kg ([1]; Mesocricetus auratus, po, 120 h, 10 mg/kg (footnote 2), read-out: Percent inhibition of cholesterol in serum): 33%
CCCCCCC(CNC(=O)Nc1c(C(C)C)cccc1C(C)C)c1ccc(OC)c(OC)c1 (stereo not drawn) [Example 36]	26	–
CCCCCC(CNC(=O)Nc1c(C(C)C)cccc1C(C)C)c1cccc(OC)c1OC (single isomer, unassigned; (+)) [Example 50, (+)-1-(2-(2,3-dimethoxyphenyl)heptyl)-3-(2,6-diisopropylpehyl)urea]	–	inhibition in vivo at 0.1 mg/kg [1, 4]: 18%
CCCCCC(CNC(=O)Nc1c(C(C)C)cccc1C(C)C)c1cccc(OC)c1OC (stereo not drawn) [Example 33]	–	inhibition in vivo at 0.1 mg/kg [1, 4]: 24%; pIC50 [2]: 7.80
CCCCCC(CNC(=O)Nc1c(C(C)C)cccc1C(C)C)c1cccc(OC)c1 (stereo not drawn) [Example 29]	36	–
CCCCC(CNC(=O)Nc1c(C(C)C)cccc1C(C)C)c1cccc(CC)c1 (stereo not drawn) [Example 15]	36	–
CCCCCC(CNC(=O)Nc1c(C(C)C)cccc1C(C)C)c1cccc(OC)c1OC (single isomer, unassigned; (-)) [Example 51, (-)-1-(2-(2,3-dimethoxyphenyl)heptyl)-3-(2,6-diisopropylpheyl)urea]	–	Percent inhibition of cholesterol in serum ([1]; 0.1 mg/kg, oral): 25%
CCCCC(CNC(=O)Nc1c(C(C)C)cccc1C(C)C)c1cccc(OC)c1OC (stereo not drawn) [Example 32]	43	–
CCCCC(CNC(=O)Nc1c(C(C)C)cccc1C(C)C)c1ccc(C)c(C)c1C (stereo not drawn) [Example 24]	39	–
CCCCC(CNC(=O)Nc1c(C(C)C)cccc1C(C)C)c1ccccc1C (stereo not drawn) [Example 9]	19	pIC50 [2]: 8.31
CCCCC(CNC(=O)Nc1c(C(C)C)cccc1C(C)C)c1ccc(C)cc1 (stereo not drawn) [Example 19]	36	–

Source: patent US5126483A, “1-phenylalkyl-3-phenylurea derivatives” (Mitsubishi Kasei Corporation, priority 1989, dated 1992)
